Data taken from PubChem BioAssay (NCI).
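Step 1: Grow cells in 96-well plates. Step 2: Expose to compound for 48 hours at 5 concentrations. Step 3: Interpolate endpoints linearly; if unreached, use highest concentration. Abbreviation: GI50, concentration required for 50% inhibition of growth. The concentration for full growth arrest is given as TGI.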

What was measured:
Experiment in all cases: growth of human tumour cells (NCI), 48 h
HCT-15 colon = system: HCT-15 colon
HT29 colon = system: HT29 colon
LOX IMVI melanoma = system: LOX IMVI melanoma
M14 melanoma = system: M14 melanoma
NCI-H460 lung = system: NCI-H460 lung
SK-MEL-5 melanoma = system: SK-MEL-5 melanoma
SNB-19 CNS = system: SNB-19 CNS
SNB-75 CNS = system: SNB-75 CNS
UO-31 renal = system: UO-31 renal
OVCAR-3 ovarian = system: OVCAR-3 ovarian

Structure (SMILES)	TGI (HCT-15 colon) [µM]	TGI (HT29 colon) [µM]	TGI (LOX IMVI melanoma) [µM]	TGI (M14 melanoma) [µM]	TGI (NCI-H460 lung) [µM]	TGI (SK-MEL-5 melanoma) [µM]	TGI (SNB-19 CNS) [µM]	TGI (SNB-75 CNS) [µM]	TGI (UO-31 renal) [µM]	TGI (OVCAR-3 ovarian) [µM]	GI50 (HT29 colon) [µM]	GI50 (NCI-H460 lung) [µM]	GI50 (OVCAR-3 ovarian) [µM]	GI50 (SK-MEL-5 melanoma) [µM]	GI50 (SNB-75 CNS) [µM]	GI50 (UO-31 renal) [µM]	GI50 (HCT-15 colon) [µM]	GI50 (LOX IMVI melanoma) [µM]	GI50 (M14 melanoma) [µM]	GI50 (SNB-19 CNS) [µM]
CCN(CC)COC(=S)S	> 100	> 100	> 100	> 100	> 100	> 100	> 100	> 90.2	> 100											
Cn1c2c3c(F)c(F)ccc3nc-2cc2ccccc21	10.7	12.1	5.23	5.41	12.6	12.8	18.2	5.71	7.52	13.6										
CCN(CC)CCNc1ccc2nnn3c4ccccc4c(=O)c1c23	26.2	14.2	12	15.6	6.27	10.3	40.3	11.9	29.3	23.7										
C[N+](C)([O-])Cc1cc(-c2ccccc2)ccc1O	> 100	> 100	> 100	> 100	> 100	> 100	> 100	> 100	> 100	> 100										
O=c1nc2sc3ccc4ccccc4c3n2[nH]c1=O		> 100			> 100	> 100	> 100	> 100		> 100										
COC(=O)c1cc(C)n(CN(Cc2ccccc2)Cn2nc(C(=O)OC)cc2C)n1	> 58.2	> 100	> 100	> 100	> 100	> 100	> 100	> 100	> 92.1	> 100										
NC(=O)C(Nc1ccc(Cl)cc1)c1cc2cc(Br)ccc2nc1Cl (configuration not stated)	> 50	> 50	> 50	> 50	> 50	> 50	> 50	> 50	> 50	> 50										
Cc1cc(C)n(CN(Cn2nc(C)cc2C)c2ccccc2)n1	50.2	35.6	23.8	31.1	> 100	62.4	> 100		78.5	66.6										
CCN(CC)CCNc1ccc(C)c2sc3ccccc3c(=O)c12	8.87	3.52	3.26	3.36	5.93	5.4	8.85	7.68	3	16.8										
CC(=O)N/C(=C\c1ccc(/C=C(\NC(C)=O)C2=NC3C(=O)c4ccccc4C(=O)C3N2)cc1)C1=NC2C(=O)c3ccccc3C(=O)C2N1 (configuration not stated)	> 100	> 100	> 100	> 100	> 100		> 100	76.2	74.1	> 100										
CC1=CC(C)(C)Nc2ccc(CSc3ccccc3)cc21	> 100	38.2	82.3	65.2	67.4	32.9	> 100	51.3	50.8	39.5										
O=C1C(Cl)C(c2cc3cc(Br)ccc3nc2Cl)N1c1c(Cl)cccc1Cl (configuration not stated)	> 25	> 25	7.96	> 25	> 25	> 25	> 25	> 25	4.5	> 25										
CC[C@@H](/C=C\CCC1(C[C@@H](N)CCC=C(C)C)OCCO1)O[Si](C(C)C)(C(C)C)C(C)C	35.4	32	18.3	33.6	34.9	32.7	32.8	34.6	32.3	38.8										
O=C(O)c1nccnc1C(=O)O	> 100	> 100	> 100		> 100	> 100	> 100	> 100	> 100											
O=[As](O)(O)c1ccc2nc3cc([As](=O)(O)O)ccc3nc2c1	> 100	> 100	> 100	> 100	> 100	> 100	> 100	> 100	> 100	> 100										
CCCCCCCCCCCCCCCC(=O)OC1C(O)C(CO)OC(OC)C1NC(=O)N(CCCl)N=O (configuration not stated)	54.8	26.8	23.9	36.8	17.6	30.2	23.8	24.6	28.5	33.4										
C=CCc1cccc(/C=N\N=C(/N)NO)c1O	> 100	> 58.5	22.7		17.1	20.7	> 94.4	25.9	6.69	> 25.2										
CN(C)C(=O)C1CCN(Cc2c[nH]c3ccccc23)CC1	> 100	> 100	> 100	> 100		> 100	> 100	> 100	> 100	> 100										
Nc1ccccc1N=Nc1c(S(=O)(=O)O)cc2cc(S(=O)(=O)O)cc(O)c2c1O	> 100	> 100	> 100	> 100		> 100	> 100	> 100	> 100	> 100										
O=C(/C=C/c1ccc(O)c(O)c1)NCCc1ccc(-c2ccccc2)cc1	> 100	> 100		> 100	> 100	> 100	> 100	> 100	> 100	65.7										
CCOC(=O)NC(Nc1ccc(Cl)cn1)(C(F)(F)F)C(F)(F)F	> 100	> 100	> 100	> 100	> 100		> 100	> 100	> 100	> 100										
CC(C)CN(CC#N)CC(C)C	> 100	> 100	> 100	> 100	> 100	> 100	> 100	> 100	> 100	> 100										
Cc1c2c(ccc3ccccc32)c[n+]2ccccc12	> 100	> 100		40.9		16	7.89	8.94	> 100	19.3										
Cn1c(-c2ccc(N=NNc3ccc(-c4n[nH]c(=S)n4C)cc3)cc2)n[nH]c1=S	> 100	> 100	> 100	> 100		48.1	70.2	35.1		> 100										
Cc1ccc(-c2cc(-c3c(C)nn(C)c(=O)c3N)[nH]n2)cc1	> 100	> 100	> 100	> 100	> 100	> 100	> 100			> 100										
Cc1ccc(C2CC(c3cccc(Nc4ccncc4)c3)=NN2c2ccccc2)cc1 (configuration not stated)		5.63			3.33	3.24		2.88	2.74	3.13	2.23	1.8	1.7	1.79	1.32	1.41				
[O-][n+]1c(-c2ccccc2)c2nc3ccccc3nc2c2ccccc21	> 100	> 100	> 100	> 100	> 100	> 100	> 100	99	> 100	> 100										
O=C(O)Cn1c2c(c3c(O)cccc31)C(=O)c1ccccc1-2	> 100	> 100	> 100	> 100	> 100	> 100	> 100	> 100	> 100	> 100	> 100	> 100	> 100	> 100	> 100	> 100	> 100	> 100	> 100	> 100
